Experimental data published in US9250231B2, “Method for selecting mevalonate synthesis modulators using cells derived from human pluripotent cells” (Centre d'Etude des Cellules Souches, priority 2010, dated 2016).

How the values were obtained:
[1] = system: cells derived from human embryonic stem cells SA01; experiment: Growth capacity (maximum number of cells before senescence) of MSC type cells cultivated with or without FGF2 and AA2P; assay type: cell-based; conditions: versus control FCS20%
Procedure: (§1) The role of FGF2 and of ascorbic acid 2-phosphate on the growth capacities of the isolated cells according to the method of the invention was analyzed on cells derived from human embryonic stem cells SA01. The cells are cultivated in the presence of 20% fetal calf serum (control condition) and in the presence or in the absence of FGF2 and of ascorbic acid 2-phosphate (AA2P).

[2] = system: SSEA4; experiment: Flow cytometry of SSEA4 on MSC type cells derived from hES SA01; assay type: cell-based, human; conditions: added to control FCS20%; FGF2 10 ng/ml, AA2P 1 mM; control 7
Procedure: as §1
The presence of SSEA4 on cells cultivated under these different conditions were analyzed by flow cytometry by using a specific antibody directed against SSEA4.

[3] = system: <<MSC>> SA01 cells derived from hES cells (SA01); experiment: Comparative toxicity of statins in 384-well plates, Cell Titer Glow, with and without mevalonate; assay type: cell-based, human; conditions: for cell viability as percentage of the result without any treatment, With Mevalonate / cell viability as percentage of the result without any treatment, Without Mevalonate: human, 72 h
Procedure: For this experiment, the differentiated <<MSC>> SA01 cells derived from hES cells (SA01) were tested in 384-well plates by using a distribution robot and cell viability was measured by Cell Titer Glow after 72 hours of cultivation.

[4] = system: <<MSC>> WT cells derived from hES cells; experiment: Toxicity of simvastatin in 384-well multiwells, Cell Titer Glow; assay type: cell-based, human; conditions: 72 hours, 20% fetal calf serum, 2,000 cells per well, DMSO 0.2% 987206
Source text: Determination of the number of cells by the ATP amount is therefore possible. This approach allows automated readout of the number of cells. Similar results are obtained by using traces of mitochondrial activity. Differentiated cells of the MSC type, derived from hES cells, <<MSC>> WT, were sown on 384 multiwells gelatinized beforehand by using a distribution robot of the Bravo type, at the concentration of 2,000 cells per well.

[5] = system: MSC cells derived from hES human cells SA01; experiment: Prestwick bank screening with and without mevalonate, Cell Titer Glow; assay type: cell-based; conditions: 2.5 μM, 72 h, mevalonate 2 mM, 96 wells, 20% fetal calf serum

`O=C1O[C@H]([C@@H](O)CO)C(O)=C1OP(=O)(O)O` [AA2P, Ascorbic Acid 2-Phosphate] was tested, and the “increase of the amount of accumulated maximum cells” value [1] was “less than 6 log factor” and the “Average fluorescence intensity (SSEA4)” value [2] was 7.

`CC(C)n1c(/C=C/C(O)CC(O)CC(=O)O)c(-c2ccc(F)cc2)c2ccccc21` (centres unmarked) [Fluvostatin] was tested, and the “comparative toxicity of statins” value [3] was “more toxic than simvastatin”, the “cell viability as percentage of the result without any treatment, With Mevalonate” value [3] was 104% and the “cell viability as percentage of the result without any treatment, Without Mevalonate” value [3] was 32.8%.

`CCC(C)(C)C(=O)O[C@H]1C[C@@H](C)C=C2C=C[C@H](C)[C@H](CC[C@@H]3C[C@@H](O)CC(=O)O3)[C@H]21` [Simvastatin] was tested, and the “cell viability as percentage of the result without any treatment, With Mevalonate” value [3] was 98.3%, the “cell viability as percentage of the result without any treatment, Without Mevalonate” value [3] was 48.7% and the “amount of cells by Cell Titer Glow, Statin 2 μM” value [4] was 474583.

With “FGF2: growth factor from the FGF family added to the culture medium” the “increase of the amount of accumulated maximum cells” value [1] was “less than 5 log factor” and the “Average fluorescence intensity (SSEA4)” value [2] was 10.

Mevinolin was tested, and the “selected in screening 1 (toxicity of more than 35% in the absence, less than 20% in the presence of mevalonate)” value [5] was “isolated”.
